# Data reported in patent US20260217712A1, “SOLID STATE FORMS OF MNK INHIBITORS” (4E Therapeutics, Inc., priority 2023, published 2026).
# “Also recorded” adds a separate entry of the source. Like-named read-outs stand apart in the source and are kept apart here.
# Legend:
# Type in all cases: physicochemical
# [1] = Drying / standing under ambient conditions, XRPD; conditions: ambient conditions
# Description: Structure (I) (Sample 28-2, 30 mg, Poorly Crystalline Pattern 3) was wetted with solvent (300 μL, 10 vol) according to Table 30 and put into a shaker at 50° C. for 6 days. The suspensions were isolated using filter cartridges and positive pressure. A XRPD pattern was collected for each sample. […] This characterization is presented and discussed in Examples detailed herein. (see, e.g., FIG. 75)
# [2] = Static storage at 25° C./97% RH, XRPD and HPLC post storage; conditions: 10 days
# [3] = Drying / standing under ambient conditions, XRPD; conditions: listed as 34-1
# [4] = Static storage at 40° C./75% RH, XRPD and HPLC post storage; conditions: 7 days, listed as 34-1
# [5] = as above
# Description: Purity analysis was performed on an Agilent HP1100/Infinity II 1260 series system equipped with a diode array detector and using OpenLAB software. The full method details are provided below:
# Poorly Crystalline Structure (I) (from Lot A, Free Form Pattern 1, 30 mg) was dissolved in 50 volumes of THF:Water 9:1 at 60° C. in 13 vials, stirring at 500 RPM (small amount of debris present). The solutions were then treated with 1.1 molar equivalents (90/180 μL) of selected counter-ions (Table 7). The resulting solutions were then cooled down to 5° C. at 0.1° C./min and were held at this temperature for 2 days. The suspensions were filtered and dried under suction for 20 min. The gummed sample was left with the cap off to promote crystallization. All solids obtained were initially analyzed by XRPD and stored in glass HPLC vials for subsequent analysis.
# Any solids obtained were analyzed by XRPD, ^1H NMR, HPLC, TGA, DSC, XRPD post storage at 40° C./75% RH after 7 days & IC if necessary. Additional microscopy techniques (PLM & HSM) were used to complement the above analysis where appropriate.
# [6] = Gravimetric vapor sorption (GVS) and XRPD post-GVS; conditions: for GVS reversible water uptake 0-90% RH: 25° C.; for Post GVS XRPD form: after double cycle GVS
# Description: Sorption isotherms were obtained using a SMS DVS Intrinsic moisture sorption analyzer, controlled by DVS Intrinsic Control software. The sample temperature was maintained at 25° C. by the instrument controls. The humidity was controlled by mixing streams of dry and wet nitrogen, with a total flow rate of 200 mL/min. The relative humidity was measured by a calibrated Rotronic probe (dynamic range of 1.0-100% RH), located near the sample. The weight change, (mass relaxation) of the sample as a function of % RH was constantly monitored by a microbalance (accuracy±0.005 mg).
# (§1) Typically, 5-30 mg of sample was placed in a tared mesh stainless steel basket under ambient conditions. The sample was loaded and unloaded at 40% RH and 25° C. (typical room conditions). A moisture sorption isotherm was performed as outlined below (2 scans per complete cycle). The standard isotherm was performed at 25° C. at 10% RH intervals over a 0-90% RH range. Typically, a double cycle (4 scans) was carried out. Data analysis was carried out within Microsoft Excel using the DVS Analysis Suite.
# Sorption isotherms were obtained using a Hiden IGASorp moisture sorption analyser, controlled by Isochema HISorp software. The sample temperature was maintained at 25° C. by a Grant LT ecocool 150 re-circulating water bath. The humidity was controlled by mixing streams of dry and wet nitrogen, with a total flow rate of 250 ml·min-1. The relative humidity was measured by a calibrated Vaisala RH probe (dynamic range of 0-95% RH), located near the sample. The weight change, (mass relaxation) of the sample as a function of % RH was constantly monitored by the microbalance (accuracy±0.001 mg).
# as §1, with “Typically, 20-30” for “Typically, 5-30”, “scans giving 1” for “scans per”, “within the Isochema HISorp 2019 software and exported into” for “within”, “Excel to present accordingly.” for “Excel using the DVS Analysis Suite.”
# [7] = Competitive slurries of Pattern 3 and Pattern 11, XRPD
# Description: A solid mixture of Structure (I) Pattern 3 (from Lot B, 300 mg) and Pattern 11 (Sample 35-1, 300 mg) was mixed for 3 hours using a turbula mixer.
# The solid mixture (30 mg) was suspended in solvent (dried with molecular sieves, 600 μL, 20 vol) and either stirred in the fridge, shaken at RT or 55° C. After 7 days, an aliquot of each suspension was analyzed by XRPD. Samples that were still a mixture of forms were placed back into fridge/shakers for a further 10 days and re-analyzed (results shown in Table 36).
# Competitive slurry experiments at 55° C., along with one at 5° C., were repeated using a saturated solution as the solvent mixture to minimize dissolution that may have occurred at temperatures other than room temperature.
# A saturated solution of THF/Water (9:1) (5 mL) with Structure (I) (from Lot B) was equilibrated at 55° C. overnight in a shaker. The solution was filtered using 0.45 μm nylon filter before use.
# A solid mixture of Pattern 3 and Pattern 11 (30 mg) was suspended in the saturated solution (600 μL, 20 vol) and either stirred in the fridge (5° C.) or shaken at 55° C. After 1 day, aliquots of the suspensions were analyzed by XRPD. Both samples were placed back into fridge/shaker. After a total of 11 days, the samples were removed from fridge/shaker. Sample 38-2 was filtered before XRPD, Sample 38-1 was pipetted onto the XRPD holder and allowed to dry before analysis (solid passed through filter).
# [8] = Thermodynamic solubility in simulated media and buffers; conditions: for solubility at 24 h: 25 °C, thermodynamic from solid
# Description: The thermodynamic solubility for Pattern 11 was determined in 3 simulated media and two buffers. […]
compound,measurement,setting,value
Cc1cc(Nc2cc(N)ncn2)c(=O)n2c1C(=O)NC21CCC2(CC2)CC1 [Pattern 11],form under ambient conditions (XRPD after ambient overnight),[1],stable at ambient conditions; also recorded: stable at room temperature
same,"Static storage 25° C./97% RH, form",[2],10 days: No change in form-Pattern 11
same,"Static storage 25° C./97% RH, purity",[2],Purity: 98.1%
same,form under ambient conditions (XRPD after ambient overnight),[3],Pattern 11
same,XRPD post storage at 40° C./75% RH,[4],7 days: Pattern 11 + extra peaks (not
same,stability to storage at 40° C./75% RH (in words),[5]; 40° C./75% RH (elevated temperature and humidity),reasonable stability; also recorded: good stability
same,"XRPD form after storage at 40° C./75% RH, 3 days","[5]; 40° C./75% RH, 3 days",3 days: No change in form-Pattern 11
same,"Static storage 40° C./75% RH, form","[5]; 40° C./75% RH, 10 days",form and purity was found to stable
same,"Static storage 40° C./75% RH, purity","[5]; 40° C./75% RH, 10 days",Purity: 98.0%
same,"Static storage 40° C./75% RH, form","[5]; 40° C./75% RH, 10 days, listed as 35-1",10 days: No change in form-Pattern 11
same,hygroscopicity (in words),[6],only slightly hygroscopic
same,GVS reversible water uptake 0-90% RH,[6],0.3 wt %
same,GVS reversible water uptake 0-90% RH,[6]; listed as 35-1,0.3 wt % reversible water uptake 0-90% RH with a
same,Post GVS XRPD form,[6],remained Pattern 11
same,Post GVS XRPD form,[6]; listed as 35-1,Post GVS XRPD: Pattern 11 + peak at 7.7°
same,hygroscopicity (in words),[6]; listed as Structure (I) Pattern 11,only slightly hygroscopic
same,form conversion in competitive slurries (in words),[7],no conversion of Pattern 11 to Pattern 3
same,Solubility FaSSGF,"[8]; FaSSGF, 25° C./24 h, listed as 35-1",FaSSGF-0.078 mg/mL
same,solubility at 24 h,"[8]; FaSSIF, fassif, FaSSIF, 25° C./24 h, read-out: Solubility FaSSIF",1.4 µg/mL
same,solubility at 24 h,"[8]; FeSSIF, fessif, FeSSIF, 25° C./24 h, read-out: Solubility FeSSIF",4 µg/mL
same,Solubility pH 2.0,"[8]; pH 2.0 buffer, 25° C./24 h, listed as 35-1",pH 2.0-0.052 mg/mL
same,solubility at 24 h,"[8]; pH 7.4 buffer, pH 7.4, aqueous buffer, pH 7.4 buffer, 25° C./24 h, read-out: Solubility pH 7.4",1 µg/mL
same,solubility in simulated fluids and buffers (in words),[8]; simulated media and buffers,practically insoluble
